# Values quoted from earlier work as cited in patent publication US20160184299A1, “COMBINATION COMPOSITION COMPRISING OXYCODONE AND ACETAMINOPHEN FOR RAPID ONSET AND EXTENDED DURATION OF ANALGESIA” (MALLINCKRODT LLC, priority 2011, published 2016).
# Tested on: hepatic GSH
# Settings: mice, cited from earlier work
compound,measurement,setting,value
CC(=O)Nc1ccc(O)cc1 [acetaminophen],Time to onset of circulating hepatic GSH changes after administration,100 mg/kg to 600 mg/kg,≤ 15 min
same,Time of minimum GSH level after injection,all dose groups,2 h
